For two compounds, IC50 results are on record in ChEMBL document CHEMBL1166004, “Microbial transformations of the taxan ring of 10-DAB by some strains of the fungus Curvularia lunata: formation of the bis-abeotaxanes wallifoliol and 4-deacylwallifoliol” (J Nat Prod, 2010).

For this assay, the system named is NCI-H460. Put plainly: Cytotoxicity against human H460 cells. Type of assay: functional, cell-based.

Regarding `CC1=C2[C@]3(O)C(=O)OC(C)(C)[C@]2(C[C@@H]1O)[C@@H](OC(=O)c1ccccc1)[C@@H]1[C@]2(O)CO[C@@H]2C[C@H](O)[C@]13C`, 103 µM corresponded to half-maximal inhibition (IC50).

Turning to `CC(=O)O[C@@]12CO[C@@H]1C[C@H](O)[C@]1(C)[C@@H]2[C@H](OC(=O)c2ccccc2)[C@]23C[C@H](O)C(C)=C2[C@@]1(O)C(=O)OC3(C)C` [WALLIFOLIOL], the IC50 – broadly, the point on the concentration scale where inhibition reaches its midpoint – amounted to 68 µM.
